Reference: ChEMBL document CHEMBL3885881, “DrugMatrix”

Organism: Rattus norvegicus
Test: DrugMatrix - Regimen: Daily Repeat
Assay type: toxicity, organism-based, Sprague-Dawley
Design: regimen Daily Repeat, gender Male, age 6-8 weeks
Details: in vivo, po, route oral GAVAGE, vehicle 100 % WATER; for ABSOLUTE BASOPHIL / ABSOLUTE EOSINOPHIL / ABSOLUTE LYMPHOCYTE / ABSOLUTE MONOCYTE / ABSOLUTE SEGMENTED NEUTROPHIL / BASOPHIL / EOSINOPHIL / ERYTHROCYTE COUNT / HEMATOCRIT / HEMOGLOBIN / LEUKOCYTE COUNT / LYMPHOCYTE / MEAN CORPUSCULAR HEMOGLOBIN / MEAN CORPUSCULAR HEMOGLOBIN CONCENTRATION / MEAN CORPUSCULAR VOLUME / MONOCYTE / NEUTROPHIL / NUCLEATED RED BLOOD CELLS / PLATELET COUNT: tissue Blood; for ALANINE AMINOTRANSFERASE / ALBUMIN / ALKALINE PHOSPHATASE / ASPARTATE AMINOTRANSFERASE / BLOOD UREA NITROGEN / CARBON DIOXIDE / CHLORIDE / CHOLESTEROL / CREATINE PHOSPHOKINASE / CREATININE / GLUCOSE / LACTATE DEHYDROGENASE / LIPASE / PHOSPHORUS / POTASSIUM / SODIUM / TOTAL BILIRUBIN / TOTAL PROTEIN / URIC ACID: tissue Plasma
[1] = 0 mg/kg, 72 h, dose level Control, time 3 day
[2] = 0 mg/kg, 120 h, dose level Control, time 5 day
[3] = 60 mg/kg, 72 h, dose level Low, time 3 day
[4] = 60 mg/kg, 120 h, dose level Low, time 5 day

CC(CCc1ccccc1)NCC(O)c1ccc(O)c(C(N)=O)c1 (configuration not stated) [LABETALOL]
ABSOLUTE BASOPHIL [1]: 0 CELLS/uL | ABSOLUTE EOSINOPHIL [1]: 168.33 CELLS/uL | ABSOLUTE LYMPHOCYTE [1]: 13654.17 CELLS/uL | ABSOLUTE MONOCYTE [1]: 121 CELLS/uL | ABSOLUTE SEGMENTED NEUTROPHIL [1]: 1223.17 CELLS/uL | BASOPHIL [1]: 0% | EOSINOPHIL [1]: 1.17% | ERYTHROCYTE COUNT [1]: 5.7 x10E6/uL | HEMATOCRIT [1]: 35.33% | HEMOGLOBIN [1]: 13.97 G/DL | LEUKOCYTE COUNT [1]: 15.17 x10E3/uL | LYMPHOCYTE [1]: 89.83% | MEAN CORPUSCULAR HEMOGLOBIN [1]: 24.53 pg | MEAN CORPUSCULAR HEMOGLOBIN CONCENTRATION [1]: 39.53 G/DL | MEAN CORPUSCULAR VOLUME [1]: 62.05 fL | MONOCYTE [1]: 0.83% | NEUTROPHIL [1]: 8.17% | NUCLEATED RED BLOOD CELLS [1]: 0 /100WBC | PLATELET COUNT [1]: 1312.17 x10E3/uL | ALANINE AMINOTRANSFERASE [1]: 50.83 u/L | ALBUMIN [1]: 4.18 G/DL | ALKALINE PHOSPHATASE [1]: 334.17 u/L | ASPARTATE AMINOTRANSFERASE [1]: 82.17 u/L | BLOOD UREA NITROGEN [1]: 15.5 mg/dL | CARBON DIOXIDE [1]: 31.33 mmol/L | CHLORIDE [1]: 99.83 MEQ/L | CHOLESTEROL [1]: 76 mg/dL | CREATINE PHOSPHOKINASE [1]: 272.17 u/L | CREATININE [1]: 0.17 mg/dL | GLUCOSE [1]: 143 mg/dL | LACTATE DEHYDROGENASE [1]: 157.5 u/L | LIPASE [1]: 9.33 u/L | PHOSPHORUS [1]: 12.18 mg/dL | POTASSIUM [1]: 6.78 MEQ/L | SODIUM [1]: 143.9 MEQ/L | TOTAL BILIRUBIN [1]: 0.22 mg/dL | TOTAL PROTEIN [1]: 5.85 G/DL | URIC ACID [1]: 1.7 mg/dL | ABSOLUTE BASOPHIL [2]: 0 CELLS/uL | ABSOLUTE EOSINOPHIL [2]: 0 CELLS/uL | ABSOLUTE LYMPHOCYTE [2]: 13539.33 CELLS/uL | ABSOLUTE MONOCYTE [2]: 177.67 CELLS/uL | ABSOLUTE SEGMENTED NEUTROPHIL [2]: 2116.33 CELLS/uL | BASOPHIL [2]: 0% | EOSINOPHIL [2]: 0% | ERYTHROCYTE COUNT [2]: 5.78 x10E6/uL | HEMATOCRIT [2]: 36.13% | HEMOGLOBIN [2]: 14.1 G/DL | LEUKOCYTE COUNT [2]: 15.83 x10E3/uL | LYMPHOCYTE [2]: 85.83% | MEAN CORPUSCULAR HEMOGLOBIN [2]: 24.42 pg | MEAN CORPUSCULAR HEMOGLOBIN CONCENTRATION [2]: 39 G/DL | MEAN CORPUSCULAR VOLUME [2]: 62.55 fL | MONOCYTE [2]: 0.83% | NEUTROPHIL [2]: 13.33% | NUCLEATED RED BLOOD CELLS [2]: 0.17 /100WBC | PLATELET COUNT [2]: 1281.17 x10E3/uL | ALANINE AMINOTRANSFERASE [2]: 55.5 u/L | ALBUMIN [2]: 4.22 G/DL | ALKALINE PHOSPHATASE [2]: 345 u/L | ASPARTATE AMINOTRANSFERASE [2]: 92.5 u/L | BLOOD UREA NITROGEN [2]: 16.5 mg/dL | CARBON DIOXIDE [2]: 26.5 mmol/L | CHLORIDE [2]: 103.5 MEQ/L | CHOLESTEROL [2]: 78.5 mg/dL | CREATINE PHOSPHOKINASE [2]: 381.5 u/L | CREATININE [2]: 0.21 mg/dL | GLUCOSE [2]: 161.83 mg/dL | LACTATE DEHYDROGENASE [2]: 487.5 u/L | LIPASE [2]: 10.17 u/L | PHOSPHORUS [2]: 11.83 mg/dL | POTASSIUM [2]: 6.4 MEQ/L | SODIUM [2]: 146.95 MEQ/L | TOTAL BILIRUBIN [2]: 0.22 mg/dL | TOTAL PROTEIN [2]: 6.22 G/DL | URIC ACID [2]: 1.83 mg/dL | ABSOLUTE BASOPHIL [3]: 0 CELLS/uL | ABSOLUTE EOSINOPHIL [3]: 201.33 CELLS/uL | ABSOLUTE LYMPHOCYTE [3]: 14909.33 CELLS/uL | ABSOLUTE MONOCYTE [3]: 67 CELLS/uL | ABSOLUTE SEGMENTED NEUTROPHIL [3]: 1589 CELLS/uL | BASOPHIL [3]: 0% | EOSINOPHIL [3]: 1.33% | ERYTHROCYTE COUNT [3]: 5.26 x10E6/uL | HEMATOCRIT [3]: 33.47% | HEMOGLOBIN [3]: 13 G/DL | LEUKOCYTE COUNT [3]: 16.77 x10E3/uL | LYMPHOCYTE [3]: 89.33% | MEAN CORPUSCULAR HEMOGLOBIN [3]: 24.77 pg | MEAN CORPUSCULAR HEMOGLOBIN CONCENTRATION [3]: 38.9 G/DL | MEAN CORPUSCULAR VOLUME [3]: 63.63 fL | MONOCYTE [3]: 0.33% | NEUTROPHIL [3]: 9% | NUCLEATED RED BLOOD CELLS [3]: 0 /100WBC | PLATELET COUNT [3]: 1299.67 x10E3/uL | ALANINE AMINOTRANSFERASE [3]: 51.67 u/L | ALBUMIN [3]: 4.23 G/DL | ALKALINE PHOSPHATASE [3]: 301.67 u/L | ASPARTATE AMINOTRANSFERASE [3]: 83.67 u/L | BLOOD UREA NITROGEN [3]: 14.33 mg/dL | CARBON DIOXIDE [3]: 31.67 mmol/L | CHLORIDE [3]: 98.67 MEQ/L | CHOLESTEROL [3]: 81.33 mg/dL | CREATINE PHOSPHOKINASE [3]: 278 u/L | CREATININE [3]: 0.27 mg/dL | GLUCOSE [3]: 142.33 mg/dL | LACTATE DEHYDROGENASE [3]: 160 u/L | LIPASE [3]: 9.33 u/L | PHOSPHORUS [3]: 12.9 mg/dL | POTASSIUM [3]: 6.47 MEQ/L | SODIUM [3]: 145.3 MEQ/L | TOTAL BILIRUBIN [3]: 0.2 mg/dL | TOTAL PROTEIN [3]: 5.97 G/DL | URIC ACID [3]: 1.7 mg/dL | ABSOLUTE BASOPHIL [4]: 0 CELLS/uL | ABSOLUTE EOSINOPHIL [4]: 0 CELLS/uL | ABSOLUTE LYMPHOCYTE [4]: 14854.33 CELLS/uL | ABSOLUTE MONOCYTE [4]: 209.33 CELLS/uL | ABSOLUTE SEGMENTED NEUTROPHIL [4]: 1369.67 CELLS/uL | BASOPHIL [4]: 0% | EOSINOPHIL [4]: 0% | ERYTHROCYTE COUNT [4]: 5.65 x10E6/uL | HEMATOCRIT [4]: 34.93% | HEMOGLOBIN [4]: 13.63 G/DL | LEUKOCYTE COUNT [4]: 16.43 x10E3/uL | LYMPHOCYTE [4]: 90.33% | MEAN CORPUSCULAR HEMOGLOBIN [4]: 24.17 pg | MEAN CORPUSCULAR HEMOGLOBIN CONCENTRATION [4]: 39.03 G/DL | MEAN CORPUSCULAR VOLUME [4]: 61.87 fL | MONOCYTE [4]: 1.33% | NEUTROPHIL [4]: 8.33% | NUCLEATED RED BLOOD CELLS [4]: 0 /100WBC | PLATELET COUNT [4]: 1103 x10E3/uL | ALANINE AMINOTRANSFERASE [4]: 59 u/L | ALBUMIN [4]: 4.03 G/DL | ALKALINE PHOSPHATASE [4]: 331.33 u/L | ASPARTATE AMINOTRANSFERASE [4]: 90.67 u/L | BLOOD UREA NITROGEN [4]: 16.67 mg/dL | CARBON DIOXIDE [4]: 27.33 mmol/L | CHLORIDE [4]: 100.67 MEQ/L | CHOLESTEROL [4]: 96.67 mg/dL | CREATINE PHOSPHOKINASE [4]: 354.33 u/L | CREATININE [4]: 0.23 mg/dL | GLUCOSE [4]: 144 mg/dL | LACTATE DEHYDROGENASE [4]: 305.33 u/L | LIPASE [4]: 9.33 u/L | PHOSPHORUS [4]: 12.57 mg/dL | POTASSIUM [4]: 6.21 MEQ/L | SODIUM [4]: 143.47 MEQ/L | TOTAL BILIRUBIN [4]: 0.23 mg/dL | TOTAL PROTEIN [4]: 5.93 G/DL | URIC ACID [4]: 1.53 mg/dL
